From patent US20100113550A1, “New Crystal Forms” (BIAL - PORTELA AND CA, S.A., priority 2006, published 2010)
Like-named read-outs stand apart in the source and are kept apart here.

Assays:
Format in all cases: physicochemical
[1] = RH stability: storage at controlled relative humidity or drying, checked by XRPD and for deliquescence
[2] = as above; remark: listed apart in the source
Description: Form A samples were stored at lower relative humidities of approximately 9-11, 23 and 32% RH and analyzed by XRPD and Karl-Fischer titration analysis after four weeks (Tables 30 and 31). The samples appeared to be Form A by XRPD. […] Note that the water content in the samples at 23 and 32% RH was slightly higher compared to the initial batch of Form A.
Form X samples were stored at relative humidities of approximately 43, 75 and 90% RH and analyzed by XRPD and Karl-Fischer titration analysis after five weeks (Tables 34 and 35).

[3] = Coulometric Karl Fischer titration for water determination
Experimental: Coulometric Karl Fischer (KF) analysis for water determination was performed using a Mettler Toledo DL39 Karl Fischer titrator. Samples were placed in the KF titration vessel containing approximately Hydranal—Coulomat AD and mixed for 60 seconds to ensure dissolution. The sample was then titrated by means of a generator electrode which produces iodine by electrochemical oxidation: 2I−=>I2+2e. Three replicates were obtained to ensure reproducibility. A NIST-traceable water standard (Hydranal Water Standard 10.0) was analyzed to check the operation of the coulometer. Data were collected and analyzed using LabX Pro Titration v2.10.000.

[4] = Approximate solubilities (solvent added until a solution forms)
Description: Approximate solubilities of compound 1, Form A in aqueous mixtures containing high concentrations of organic solvents are given in Table 1. [table]

[5] = Interconversion studies of Forms A and C (slurries, XRPD)
Experimental: A slurry of compound 1, Form A, was prepared in a given solvent and loaded on an orbit shaker at either ambient or elevated temperature for at least 1 day. The liquid phase of the slurry was drawn off with a pipette and filtered through a 0.2-μm filter. A slurry containing compound 1 forms A and C was prepared using the filtered liquid phase from the Form A slurry. The mixture was then loaded on an orbit shaker in a sealed vial at either ambient or elevated temperature for 1 or 7 days. The solids were isolated by vacuum filtration or by drawing the liquid phase off with a pipette and allowing the solids to air dry at ambient conditions prior to analysis. The resulting Forms were characterised by XRPD.

[6] = acetone:water 99:1, hydrochloride

For `Cl.NCCc1c[nH]c(=S)n1[C@H]1COc2c(F)cc(F)cc2C1` [Form A, (R)-5-(2-Aminoethyl)-1-(6,8-difluorochroman-3-yl)-1,3-dihydroimidazole-2-thione hydrochloride], the “Stability at relative humidity” value ([1]; 31% relative humidity, after two weeks) was “stable”, the “Stability at relative humidity” value ([1]; 43% relative humidity, after five days) was “stable” and the “Form conversion under high laboratory humidity” value ([1]; typically 43% to 90% relative humidity, within 1 day to 2 weeks) was “converts to Form B”. For the same compound, the Observations ([2]; ~23% RH, 4 weeks) was “looks dry”, the Observations ([2]; ~32% RH, 4 weeks) was “looks dry” and the “% water” value ([3]; ~9-11% RH, 11 days) was 1.70%. For the same compound, the Moles of water ([3]; ~9-11% RH, 11 days) was 0.33 mol, the “% water” value ([3]; ~23% RH, 4 weeks) was 2.96% and the Moles of water ([3]; ~23% RH, 4 weeks) was 0.59 mol. The “% water” value ([3]; ~32% RH, 4 weeks) was 3.24%, the Moles of water ([3]; ~32% RH, 4 weeks) was 0.65 mol and the solubility ([4]; 1,4-dioxane:water 99:1, organic solvent or mixture, 1,4-dioxane:water 99:1, read-out: Solubility (approximate)) was under 24 mg/mL. The solubility ([4]; acetone:water 90:10, organic solvent or mixture, acetone:water 90:10 (9:1), read-out: Solubility (approximate)) was over 23 mg/mL, the “Solubility (approximate)” value [4, 6] was 1 mg/mL and the solubility ([4]; acetonitrile:water 90:10, organic solvent or mixture, acetonitrile:water 90:10 (9:1), read-out: Solubility (approximate)) was over 23 mg/mL. It also gave a solubility ([4]; acetonitrile:water 95:5, organic solvent or mixture, acetonitrile:water 95:5, read-out: Solubility (approximate)) of under 23 mg/mL, a solubility ([4]; ethanol:water 90:10, organic solvent or mixture, ethanol:water 90:10 (9:1), read-out: Solubility (approximate)) of over 21 mg/mL and a solubility ([4]; ethanol:water 99:1, organic solvent or mixture, ethanol:water 99:1, read-out: Solubility (approximate)) of under 25 mg/mL.
In the case of `Cl.NCCc1c[nH]c(=S)n1[C@H]1COc2c(F)cc(F)cc2C1` [Amorphous, (R)-5-(2-Aminoethyl)-1-(6,8-difluorochroman-3-yl)-1,3-dihydroimidazole-2-thione hydrochloride], the solubility ([4]; 2,2,2-trifluoroethanol, 50 °C, organic solvent or mixture, 2,2,2-trifluoroethanol, 50° C., read-out: Solubility (approximate) at elevated temperature) is reported as 8 mg/mL, the “Solubility (approximate)” value ([4]; 2,2,2-trifluoroethanol, hydrochloride) is reported as 8 mg/mL and the “Solubility (approximate)” value ([4]; acetone, hydrochloride) is reported as 49 mg/mL. For the same compound, the “Solubility (approximate)” value ([4]; acetonitrile) was under 1 mg/mL, the “Solubility compared with the other forms (in words)” value ([4]; comparison between forms, listed as Amorphous material, hydrochloride) was “higher solubilities in most organic solvents and water compared to Forms A, B, and C” and the solubility ([4]; ethanol, 53 °C, organic solvent or mixture, ethanol, 53° C., read-out: Solubility (approximate) at elevated temperature) was 11 mg/mL. The “Solubility (approximate)” value ([4]; ethanol, hydrochloride) was 10 mg/mL, the “Solubility (approximate)” value ([4]; ethyl acetate) was under 1 mg/mL and the “Solubility (approximate)” value ([4]; iso-propanol, hydrochloride) was 16 mg/mL. For the same compound, the “Solubility (approximate)” value ([4]; methanol, hydrochloride) was 50 mg/mL, the “Solubility (approximate)” value ([4]; methyl ethyl ketone, hydrochloride) was 64 mg/mL and the solubility ([4]; methyl iso-butyl ketone, organic solvent or mixture, methyl iso-butyl ketone, read-out: Solubility (approximate)) was under 1 mg/mL. For the same compound, the “Solubility (approximate)” value ([4]; tetrahydrofuran (THF), hydrochloride) was 100 mg/mL and the “Solubility (approximate)” value ([4]; water, hydrochloride) was 36 mg/mL.
For `Cl.NCCc1c[nH]c(=S)n1[C@H]1COc2c(F)cc(F)cc2C1` [Forms A and C, (R)-5-(2-Aminoethyl)-1-(6,8-difluorochroman-3-yl)-1,3-dihydroimidazole-2-thione hydrochloride], the “Form resulting from interconversion slurry” value (“Form resulting” below) ([5]; 1-day slurries at room temperature, ethanol and acetone:water 99:1) was “mixture of Forms C and B, with Form B as a minor component”, the “Form resulting” value ([5]; acetone:water 99:1, 40° C., 1-day slurry) was “mixture of Forms C and A, with Form A as a minor component” and the “Form resulting” value ([5]; after one week, ambient temperature and 40° C.) was “Form C”. The “Form resulting” value ([5]; ethanol, 40° C., 1-day slurry) was “Form C”.
In the case of `Cl.NCCc1c[nH]c(=S)n1[C@H]1COc2c(F)cc(F)cc2C1` [Form X, (R)-5-(2-Aminoethyl)-1-(6,8-difluorochroman-3-yl)-1,3-dihydroimidazole-2-thione hydrochloride], the Observations ([1]; 43% RH, 5 weeks (Table 34)) is reported as “looks dry”, the Observations ([1]; 75% RH, 5 weeks (Table 34)) is reported as “looks dry” and the “Change by XRPD on drying” value ([1]; after 6 days and 2 weeks of drying at approximately 70° C.) is reported as “did not change”. For the same compound, the Observations ([1]; ~43% RH, 5 weeks (Table 35)) was “looks dry”, the Observations ([1]; ~43% RH, 7 days) was “looks dry” and the “Weight change” value ([1]; ~43% RH, 7 days) was 1.2 mg. The “Weight change, %” value ([1]; ~43% RH, 7 days) was 3.4%, the Observations ([1]; ~75% RH, 5 weeks (Table 35)) was “looks dry” and the Observations ([1]; ~75% RH, 7 days) was “looks dry”. For the same compound, the “Weight change” value ([1]; ~75% RH, 7 days) was 2.4 mg, the “Weight change, %” value ([1]; ~75% RH, 7 days) was 6.0% and the Observations ([1]; ~90% RH, 5 weeks (Table 35)) was “looks dry”. The “Weight change” value ([1]; ~90% RH, 1 day) was 2.3 mg, the “Weight change, %” value ([1]; ~90% RH, 1 day) was 5.6% and the Observations ([1]; ~90% RH, 7 days) was “looks dry”. The “Weight change” value ([1]; ~90% RH, 7 days) was 0.9 mg, the “Weight change, %” value ([1]; ~90% RH, 7 days) was 2.1% and the Observations ([2]; 90% RH, 5 weeks (Table 34)) was “looks dry”. The “Form conversion at high relative humidity” value ([2]; 90% RH, after 4 days and 5 weeks) was “converted to Form B”, the “% water” value ([3]; 43% RH, 5 weeks) was 5.52% and the Moles of water ([3]; 43% RH, 5 weeks) was 1.13 mol. The “% water” value ([3]; 75% RH, 5 weeks) was 8.74%, the Moles of water ([3]; 75% RH, 5 weeks) was 1.85 mol and the “% water” value ([3]; 90% RH, 5 weeks) was 6.47%. It also gave a Moles of water ([3]; 90% RH, 5 weeks) of 1.34 mol.
In the case of `Cl.NCCc1c[nH]c(=S)n1[C@H]1COc2c(F)cc(F)cc2C1` [Form B, (R)-5-(2-Aminoethyl)-1-(6,8-difluorochroman-3-yl)-1,3-dihydroimidazole-2-thione hydrochloride], the “Stability at relative humidity” value ([1]; 90% relative humidity) is reported as “stable”, the Deliquescence ([1]; 90% relative humidity, after 10 days) is reported as “no deliquescence was observed” and the “RH stability, XRPD patterns” value ([1]; after 2 days, 3, 7 and 8 weeks at both 75 and 90% RH) is reported as “did not change”. The “Form conversion upon desorption (drying)” value ([1]; drying) was “convert back to Form A”, the “Weight change” value ([1]; ~55% RH, 8 days) was 10.7 mg and the “Weight change, %” value ([1]; ~55% RH, 8 days) was 9.5%. For the same compound, the Observations ([1]; ~55% RH, 8 days (Table 32)) was “looks dry”, the Observations ([1]; ~55% RH, 8 days (Table 33)) was “looks dry” and the Observations ([1]; ~75% RH, 3 weeks (Table 32)) was “looks dry”. The Observations ([1]; ~75% RH, 3 weeks (Table 33)) was “looks dry”, the Observations ([1]; ~75% RH, 7 weeks) was “looks dry” and the Observations ([1]; ~75% RH, 8 weeks (Table 32)) was “looks dry”. For the same compound, the Observations ([1]; ~75% RH, 8 weeks (Table 33)) was “looks dry”, the “Weight change” value ([1]; ~75% RH, 2 days) was 11.0 mg and the “Weight change, %” value ([1]; ~75% RH, 2 days) was 4.5%. For the same compound, the Observations ([1]; ~90% RH, 3 weeks (Table 32)) was “looks dry”, the Observations ([1]; ~90% RH, 3 weeks (Table 33)) was “looks dry” and the Observations ([1]; ~90% RH, 7 weeks) was “looks dry”. For the same compound, the Observations ([1]; ~90% RH, 8 weeks (Table 32)) was “looks dry”, the Observations ([1]; ~90% RH, 8 weeks (Table 33)) was “looks dry” and the “Weight change” value ([1]; ~90% RH, 2 days) was 11.6 mg. For the same compound, the “Weight change, %” value ([1]; ~90% RH, 2 days) was 4.6%, the “Stability under high relative humidities” value ([2]; high relative humidities, long periods of time) was “remain stable” and the “Change in the water content on storage” value ([3]; after 2 days, 3 weeks and 8 weeks at both 75 and 90% RH) was “No significant changes”. The “% water” value ([3]; ~55% RH, 8 days) was 5.34%, the Moles of water ([3]; ~55% RH, 8 days) was 1.1 mol and the “% water” value ([3]; ~75% RH, 3 weeks) was 6.02%. The Moles of water ([3]; ~75% RH, 3 weeks) was 1.24 mol, the “% water” value ([3]; ~75% RH, 8 weeks) was 6.12% and the Moles of water ([3]; ~75% RH, 8 weeks) was 1.26 mol. The “% water” value ([3]; ~75% RH, 2 days) was 6.23%, the Moles of water ([3]; ~75% RH, 2 days) was 1.28 mol and the “% water” value ([3]; ~90% RH, 3 weeks) was 5.99%. For the same compound, the Moles of water ([3]; ~90% RH, 3 weeks) was 1.23 mol, the “% water” value ([3]; ~90% RH, 8 weeks) was 6.46% and the Moles of water ([3]; ~90% RH, 8 weeks) was 1.33 mol. The “% water” value ([3]; ~90% RH, 2 days) was 6.70%, the Moles of water ([3]; ~90% RH, 2 days) was 1.39 mol and the “Solubility (approximate)” value [4, 6] was under 29 mg/mL. For the same compound, the “Solubility (approximate)” value ([4]; acetone, hydrochloride) was 2 mg/mL, the “Solubility (approximate)” value ([4]; acetonitrile:water 95:5, hydrochloride) was under 27 mg/mL and the “Solubility (approximate)” value ([4]; ethanol:water 99:1, hydrochloride) was under 28 mg/mL. For the same compound, the “Solubility (approximate)” value ([4]; ethanol, hydrochloride) was 4 mg/mL, the “Solubility (approximate)” value ([4]; methanol, hydrochloride) was 15 mg/mL and the “Solubility by kind of solvent (in words)” value ([4]; organic solvents and aqueous mixtures, hydrochloride) was “higher solubilities in aqueous solvent mixtures compared to organic solvents”.
